Results taken from patent US20140094451A1, “PREVENTIVE OR REMEDY FOR GLAUCOMA” (Kowa Co., Ltd., priority 2005, published 2014).

Experiments:
[1] = tested on: rabbits with normal IOP; conditions: cited from earlier work
[2] = tested on: Japanese white rabbits; test: Ocular hypotensive effect (IOP change from initial IOP) after instillation, alone or in combination; type: in vivo; conditions: FIG. 2; single drug treatment groups; instillation 50 μL, male JW rabbits
Procedure: To examine usefulness of combination use of a Rho kinase inhibitor and an α1 blocker, the ocular hypotensive effects were compared by administering either of these drugs alone or both in combination to laboratory animals. (S)-(−)-1-(4-fluoro-5-isoquinolinesulfonyl)-2-methyl-1,4-homopiperazine-hydrochloride dihydrate was dissolved in physiological saline, and the solution was neutralized (pH 6.0) by adding sodium dihydrogenphosphate and sodium hydroxide to prepare a (S)-(−)-1-(4-fluoro-5-isoquinolinesulfonyl)-2-methyl-1,4-homopiperazine solution at a desired concentration. The commercially available “Eril® S Injection” (Asahi Kasei Pharma) was used as it was. The commercially available “Detantol 0.01% Ophthalmic Solution” (Santen Pharmaceutical Co., Ltd.) was used as it was. The ocular hypotensive effect was examined after the combination use of (S)-(−)-1-(4-fluoro-5-isoquinolinesulfonyl)-2-methyl-1,4-homopiperazine and bunazosin. As a control, the ocular hypotensive effect was also examined after the use of bunazosin alone or (S)-(−)-1-(4-fluoro-5-isoquinolinesulfonyl)-2-methyl-1,4-homopiperazine alone. Similarly, the ocular hypotensive effect was examined after the combination use of hexahydro-1-(5-isoquinolinesulfonyl)-1H-1,4-diazepine and bunazosin. […]

Row | SMILES | time after instillation from which IOP is lowered [1] [h] | time of maximum ocular hypotensive effect after instillation [1] [h] | maximum IOP reduction ([1]; instillation, concentration of 0.10) [mmHg] | time after instillation when the ocular hypotensive effect disappeared [2] [h]
1 | C[C@@H](N)c1ccc(C(=O)Nc2ccnc3[nH]ccc23)cc1 [Y-39983] | 1 | 2 to 4 | 15 | 
2 | CCCC(=O)N1CCCN(c2nc(N)c3cc(OC)c(OC)cc3n2)CC1 [bunazosin] |  |  |  | 5
3 | O=S(=O)(c1cccc2cnccc12)N1CCCNCC1 [hexahydro-1-(5-isoquinolinesulfonyl)-1H-1,4-diazepine] |  |  |  | 5
